From ChEMBL document CHEMBL1926681, “Novel inhibitors of epidermal growth factor receptor: (4-(Arylamino)-7H-pyrrolo[2,3-d]pyrimidin-6-yl)(1H-indol-2-yl)methanones and (1H-indol-2-yl)(4-(phenylamino)thieno[2,3-d]pyrimidin-6-yl)methanones” (Bioorg Med Chem, 2012)
Calls of active or inactive are those of the source. The calls are words filed in the database; no cut-off is given here.

Key:
[1] = target: Hepatocyte growth factor receptor (Homo sapiens) (UniProt P08581); assay: Inhibition of MET using poly(Ala, Glu, Lys, Tyr) as substrate and [gamma33P]ATP at 1 uM after 60 mins by scintillation counting
[2] = target: Vascular endothelial growth factor receptor 2 (Homo sapiens) (UniProt P35968); assay: Inhibition of VEGFR2 using poly(Glu,Tyr)4:1 as substrate and [gamma33P]ATP at 1 uM after 60 mins by scintillation counting
[3] = target: Tyrosine-protein kinase ABL1 (Homo sapiens) (UniProt P00519); assay: Inhibition of ABL1 using poly(Ala, Glu, Lys, Tyr) as substrate and [gamma33P]ATP at 1 uM after 60 mins by scintillation counting
[4] = target: T1, Epidermal growth factor receptor (Homo sapiens, UniProt P00533); assay: Inhibition of EGFR using poly(Glu,Tyr)4:1 as substrate and [gamma33P]ATP at 1 uM after 60 mins by scintillation counting
[5] = target: Receptor tyrosine-protein kinase erbB-2 (Homo sapiens) (UniProt P04626); assay: Inhibition of Erbb2 using poly(Glu,Tyr)4:1 as substrate and [gamma33P]ATP at 1 uM after 60 mins by scintillation counting
[6] = target: T1, Epidermal growth factor receptor; assay: Inhibition of EGFR using poly(Glu,Tyr)4:1 as substrate and [gamma33P]ATP after 60 mins by scintillation counting

Hepatocyte growth factor receptor (Homo sapiens), sequence (P08581 whole entry): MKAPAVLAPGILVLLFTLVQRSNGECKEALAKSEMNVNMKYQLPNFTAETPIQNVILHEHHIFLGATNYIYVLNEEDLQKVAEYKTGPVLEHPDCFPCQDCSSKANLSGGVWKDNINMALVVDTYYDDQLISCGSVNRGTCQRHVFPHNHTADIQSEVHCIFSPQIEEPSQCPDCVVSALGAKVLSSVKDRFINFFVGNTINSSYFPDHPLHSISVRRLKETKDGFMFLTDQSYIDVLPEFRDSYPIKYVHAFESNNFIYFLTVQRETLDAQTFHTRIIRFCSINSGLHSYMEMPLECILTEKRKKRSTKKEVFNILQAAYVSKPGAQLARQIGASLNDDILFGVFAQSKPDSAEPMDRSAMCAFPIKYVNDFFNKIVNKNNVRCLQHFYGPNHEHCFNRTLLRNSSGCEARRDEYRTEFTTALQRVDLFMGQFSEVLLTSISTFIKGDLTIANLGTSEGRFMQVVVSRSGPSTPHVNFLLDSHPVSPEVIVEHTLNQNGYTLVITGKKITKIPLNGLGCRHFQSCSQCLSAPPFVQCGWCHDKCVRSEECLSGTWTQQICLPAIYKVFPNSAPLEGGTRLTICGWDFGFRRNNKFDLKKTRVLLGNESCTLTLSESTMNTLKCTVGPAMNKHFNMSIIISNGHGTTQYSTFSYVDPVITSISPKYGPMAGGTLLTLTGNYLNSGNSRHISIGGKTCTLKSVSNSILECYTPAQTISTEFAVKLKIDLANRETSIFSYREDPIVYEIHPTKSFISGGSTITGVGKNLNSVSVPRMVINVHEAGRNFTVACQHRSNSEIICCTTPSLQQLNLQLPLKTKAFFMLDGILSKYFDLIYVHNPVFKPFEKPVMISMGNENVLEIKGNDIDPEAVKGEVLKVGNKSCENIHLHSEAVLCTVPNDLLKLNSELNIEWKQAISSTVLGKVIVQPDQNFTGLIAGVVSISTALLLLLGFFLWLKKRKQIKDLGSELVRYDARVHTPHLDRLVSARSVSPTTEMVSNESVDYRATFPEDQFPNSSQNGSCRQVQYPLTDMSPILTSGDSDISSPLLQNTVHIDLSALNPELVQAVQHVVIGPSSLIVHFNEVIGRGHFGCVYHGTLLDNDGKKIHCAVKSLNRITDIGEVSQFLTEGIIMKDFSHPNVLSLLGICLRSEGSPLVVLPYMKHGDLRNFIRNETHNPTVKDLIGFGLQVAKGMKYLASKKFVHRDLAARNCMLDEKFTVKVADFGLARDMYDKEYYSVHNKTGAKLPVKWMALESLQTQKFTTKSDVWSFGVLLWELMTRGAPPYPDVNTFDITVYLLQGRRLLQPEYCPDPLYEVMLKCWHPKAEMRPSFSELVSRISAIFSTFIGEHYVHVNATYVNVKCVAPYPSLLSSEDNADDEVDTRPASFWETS
Vascular endothelial growth factor receptor 2 (Homo sapiens), sequence (P35968 whole entry): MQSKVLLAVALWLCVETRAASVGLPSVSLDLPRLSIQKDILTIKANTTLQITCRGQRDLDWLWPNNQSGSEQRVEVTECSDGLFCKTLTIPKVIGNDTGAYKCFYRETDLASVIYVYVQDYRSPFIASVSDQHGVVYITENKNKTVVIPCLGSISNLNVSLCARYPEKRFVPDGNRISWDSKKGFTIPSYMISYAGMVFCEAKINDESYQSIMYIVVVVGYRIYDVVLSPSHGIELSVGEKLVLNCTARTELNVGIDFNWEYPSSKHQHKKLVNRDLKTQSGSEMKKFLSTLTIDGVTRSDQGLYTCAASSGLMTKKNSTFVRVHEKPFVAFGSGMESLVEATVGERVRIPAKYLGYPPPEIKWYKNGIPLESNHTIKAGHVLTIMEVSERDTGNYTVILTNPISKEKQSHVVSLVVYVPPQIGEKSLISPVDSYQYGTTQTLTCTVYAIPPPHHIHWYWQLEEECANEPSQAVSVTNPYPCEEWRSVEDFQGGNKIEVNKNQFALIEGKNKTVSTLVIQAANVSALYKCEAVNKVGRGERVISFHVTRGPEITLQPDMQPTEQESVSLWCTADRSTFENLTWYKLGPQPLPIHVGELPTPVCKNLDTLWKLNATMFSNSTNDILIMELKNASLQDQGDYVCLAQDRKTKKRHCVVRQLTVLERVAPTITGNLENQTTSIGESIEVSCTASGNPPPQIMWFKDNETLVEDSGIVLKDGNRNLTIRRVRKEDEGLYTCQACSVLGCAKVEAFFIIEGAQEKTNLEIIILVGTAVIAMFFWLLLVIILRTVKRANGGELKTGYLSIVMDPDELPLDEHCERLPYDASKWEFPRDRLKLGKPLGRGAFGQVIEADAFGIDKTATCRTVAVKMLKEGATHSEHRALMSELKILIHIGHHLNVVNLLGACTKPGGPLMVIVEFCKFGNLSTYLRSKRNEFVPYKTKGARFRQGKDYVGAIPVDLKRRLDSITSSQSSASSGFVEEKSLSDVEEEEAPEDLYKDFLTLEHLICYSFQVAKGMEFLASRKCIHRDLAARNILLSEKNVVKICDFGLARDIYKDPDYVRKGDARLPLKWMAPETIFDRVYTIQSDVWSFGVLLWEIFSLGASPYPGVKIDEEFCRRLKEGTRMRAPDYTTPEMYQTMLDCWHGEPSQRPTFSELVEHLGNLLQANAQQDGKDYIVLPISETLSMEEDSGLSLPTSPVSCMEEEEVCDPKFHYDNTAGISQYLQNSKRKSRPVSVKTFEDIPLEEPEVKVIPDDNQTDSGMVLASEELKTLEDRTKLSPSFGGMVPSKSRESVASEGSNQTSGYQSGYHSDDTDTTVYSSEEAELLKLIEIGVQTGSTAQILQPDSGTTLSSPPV
Receptor tyrosine-protein kinase erbB-2 (Homo sapiens), sequence (P04626 whole entry): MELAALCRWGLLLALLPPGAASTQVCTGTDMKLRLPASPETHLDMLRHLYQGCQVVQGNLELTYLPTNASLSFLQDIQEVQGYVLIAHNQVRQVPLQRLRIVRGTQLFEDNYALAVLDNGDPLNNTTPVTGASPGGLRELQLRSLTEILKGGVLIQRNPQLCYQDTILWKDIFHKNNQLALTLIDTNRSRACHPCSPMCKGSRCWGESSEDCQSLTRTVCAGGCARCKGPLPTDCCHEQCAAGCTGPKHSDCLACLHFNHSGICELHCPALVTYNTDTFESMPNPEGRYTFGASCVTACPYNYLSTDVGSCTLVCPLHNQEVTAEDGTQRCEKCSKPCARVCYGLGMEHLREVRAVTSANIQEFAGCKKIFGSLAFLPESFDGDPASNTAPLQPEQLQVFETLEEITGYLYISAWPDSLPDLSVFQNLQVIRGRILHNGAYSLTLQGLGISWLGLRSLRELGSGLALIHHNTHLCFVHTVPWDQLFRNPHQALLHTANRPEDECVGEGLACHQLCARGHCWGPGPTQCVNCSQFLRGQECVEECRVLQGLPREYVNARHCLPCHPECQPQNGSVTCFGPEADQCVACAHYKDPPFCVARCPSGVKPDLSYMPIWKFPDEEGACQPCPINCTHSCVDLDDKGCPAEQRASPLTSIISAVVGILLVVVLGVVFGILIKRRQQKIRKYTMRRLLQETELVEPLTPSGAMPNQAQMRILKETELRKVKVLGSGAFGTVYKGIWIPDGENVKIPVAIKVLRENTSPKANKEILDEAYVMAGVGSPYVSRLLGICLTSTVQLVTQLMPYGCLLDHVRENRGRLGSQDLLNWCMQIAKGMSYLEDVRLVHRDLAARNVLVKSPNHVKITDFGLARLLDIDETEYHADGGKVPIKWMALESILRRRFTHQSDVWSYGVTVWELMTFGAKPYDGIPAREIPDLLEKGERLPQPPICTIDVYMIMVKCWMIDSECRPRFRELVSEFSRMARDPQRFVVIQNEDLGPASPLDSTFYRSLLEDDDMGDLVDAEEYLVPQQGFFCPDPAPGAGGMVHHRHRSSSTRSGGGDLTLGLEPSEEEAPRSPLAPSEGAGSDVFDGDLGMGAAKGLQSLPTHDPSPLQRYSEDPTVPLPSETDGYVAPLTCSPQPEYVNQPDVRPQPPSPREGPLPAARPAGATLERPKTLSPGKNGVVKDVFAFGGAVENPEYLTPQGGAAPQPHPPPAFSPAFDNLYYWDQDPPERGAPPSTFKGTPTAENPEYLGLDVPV
Tyrosine-protein kinase ABL1 (Homo sapiens), sequence (P00519 whole entry): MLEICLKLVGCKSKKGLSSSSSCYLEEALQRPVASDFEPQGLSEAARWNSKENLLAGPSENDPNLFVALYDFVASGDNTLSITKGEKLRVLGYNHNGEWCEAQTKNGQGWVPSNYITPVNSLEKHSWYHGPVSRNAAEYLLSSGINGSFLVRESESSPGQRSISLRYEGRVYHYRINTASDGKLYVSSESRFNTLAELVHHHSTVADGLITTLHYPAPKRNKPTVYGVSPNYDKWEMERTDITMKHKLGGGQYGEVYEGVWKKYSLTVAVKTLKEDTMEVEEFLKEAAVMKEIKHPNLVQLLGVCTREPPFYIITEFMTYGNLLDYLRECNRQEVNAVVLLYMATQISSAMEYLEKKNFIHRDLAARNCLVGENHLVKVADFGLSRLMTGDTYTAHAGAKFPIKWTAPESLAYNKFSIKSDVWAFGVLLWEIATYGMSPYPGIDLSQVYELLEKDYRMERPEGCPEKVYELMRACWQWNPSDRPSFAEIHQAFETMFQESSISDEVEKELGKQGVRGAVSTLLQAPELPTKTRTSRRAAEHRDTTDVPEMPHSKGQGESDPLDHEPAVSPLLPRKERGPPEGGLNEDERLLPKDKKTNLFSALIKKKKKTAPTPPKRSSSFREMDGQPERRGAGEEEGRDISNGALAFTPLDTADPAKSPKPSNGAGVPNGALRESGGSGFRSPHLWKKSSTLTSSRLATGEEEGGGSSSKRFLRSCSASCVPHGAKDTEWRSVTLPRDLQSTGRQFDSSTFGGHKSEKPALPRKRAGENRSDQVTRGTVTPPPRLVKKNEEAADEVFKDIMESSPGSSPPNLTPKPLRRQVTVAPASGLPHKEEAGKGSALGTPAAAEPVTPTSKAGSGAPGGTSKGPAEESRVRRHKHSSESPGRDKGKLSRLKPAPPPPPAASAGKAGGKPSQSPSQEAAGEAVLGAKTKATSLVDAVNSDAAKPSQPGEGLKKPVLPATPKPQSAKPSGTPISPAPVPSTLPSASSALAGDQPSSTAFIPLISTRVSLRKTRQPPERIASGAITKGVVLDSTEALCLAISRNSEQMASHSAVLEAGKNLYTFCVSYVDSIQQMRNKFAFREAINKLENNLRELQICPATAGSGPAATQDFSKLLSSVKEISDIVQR

Row | Compound | inhibition [1] | inhibition [2] | inhibition [3] | inhibition [4] | inhibition [5] | IC50 [6]
1 | O=C(c1cc2ccccc2[nH]1)c1cc2c(Nc3ccc(C(F)(F)F)cc3)ncnc2s1 | inactive | 24% | inactive | 43% | 34% | 
2 | O=C(c1cc2ccccc2[nH]1)c1cc2c(NCc3ccccc3)ncnc2[nH]1 | inactive | 13% | inactive | 55% |  | 
3 | O=C(c1cc2ccccc2[nH]1)c1cc2c(Nc3ccc(Cl)cc3)ncnc2s1 | inactive | 19% | inactive | 80% | 46% | 
4 | O=C(c1cc2ccccc2o1)c1cc2c(Nc3ccc(F)c(Cl)c3)ncnc2s1 | inactive | 51% | inactive | 85% | 88% | 
5 | O=C(c1cc2ccccc2[nH]1)c1cc2c(Nc3ccc(OCc4cccc(F)c4)cc3Cl)ncnc2[nH]1 | inactive | 53% | inactive | 77% | 13% | 
6 | CN(c1ccc(F)c(Cl)c1)c1ncnc2sc(C(=O)c3cc4ccccc4[nH]3)cc12 | inactive | 23% | inactive | 22% | 83% | 
7 | C#Cc1cccc(Nc2ncnc3sc(C(=O)c4cc5ccccc5[nH]4)cc23)c1 | inactive | 9% | inactive | 93% | 60% | 18.7 nM
8 | O=C(c1cc2ccccc2[nH]1)c1cc2c(Nc3ccc(F)cc3)ncnc2s1 | inactive | 45% | inactive | 96% | 50% | 43.7 nM
9 | O=C(c1cc2ccccc2[nH]1)c1cc2c(Nc3cccc(I)c3)ncnc2s1 | inactive | 0% | inactive | 73% | 75% | 
10 | O=C(c1cc2ccccc2[nH]1)c1cc2c(Nc3ccc(F)c(Cl)c3)ncnc2[nH]1 | inactive | 47% | inactive | 88% | 22% | 
11 | O=C(c1cc2ccccc2[nH]1)c1cc2c(Nc3ccc(O)cc3)ncnc2[nH]1 | inactive | 31% | inactive | 57% | 7% | 
12 | O=C(c1cc2ccccc2[nH]1)c1cc2c(Nc3ccc(Cl)cc3)ncnc2[nH]1 | inactive | 47% | inactive | 68% | 24% | 
13 | O=C(c1cc2ccccc2[nH]1)c1cc2c(Nc3ccc(Br)cc3F)ncnc2s1 | inactive | 46% | inactive | 82% | 51% | 
14 | O=C(c1cc2ccccc2s1)c1cc2c(Nc3ccc(F)c(Cl)c3)ncnc2s1 | inactive | 22% | inactive | 99% | 76% | 10.8 nM
15 | O=C(c1cc2ccccc2[nH]1)c1cc2c(Nc3ccc(OCc4cccc(F)c4)cc3Cl)ncnc2s1 | inactive | 29% | inactive | 91% | 57% | 18.5 nM
16 | O=C(c1cc2ccccc2[nH]1)c1cc2c(Nc3cccc(C(F)(F)F)c3)ncnc2s1 | inactive | 29% | inactive | 79% | 42% | 
17 | O=C(c1cc2ccccc2[nH]1)c1cc2c(NCc3ccccc3)ncnc2s1 | inactive | 17% | inactive | 77% | 38% | 
18 | C[C@@H](Nc1ncnc2sc(C(=O)c3cc4ccccc4[nH]3)cc12)c1ccccc1 | inactive | 5% | inactive | 88% | 61% | 
19 | O=C(c1cc2ccccc2[nH]1)c1cc2c(Nc3cccc(I)c3)ncnc2[nH]1 | inactive | 10% | inactive | 88% | 52% | 
20 | O=C(c1cc2ccccc2[nH]1)c1cc2c(Nc3ccc(Br)cc3F)ncnc2[nH]1 | inactive | 22% | inactive | 50% | 14% | 
21 | COc1ccc2[nH]c(C(=O)c3cc4c(Nc5cccc(I)c5)ncnc4[nH]3)cc2c1 | inactive | 17% | inactive | 88% | 25% | 
22 | C[C@@H](Nc1ncnc2[nH]c(C(=O)c3cc4ccccc4[nH]3)cc12)c1ccccc1 | inactive | 28% | inactive | 82% | 37% | 
23 | COc1cnc2[nH]c(C(=O)c3cc4c(Nc5cccc(I)c5)ncnc4[nH]3)cc2c1 | inactive | 20% | inactive | 77% | 20% | 
24 | O=C(c1cc2cc(O)ccc2[nH]1)c1cc2cncnc2[nH]1 | inactive | 0% | inactive | 0% | 0% | 
25 | C#Cc1cccc(Nc2ncnc3[nH]c(C(=O)c4cc5ccccc5[nH]4)cc23)c1 | inactive | 5% | inactive | 83% | 70% | 
